# Data: patent publication US5079376A, “Novel substance UCT-1003 and process for producing the same” (Kyowa Hakko Kogyo, Ltd., priority 1989, dated 1992)
# Tests used:
# [1] = system: lymphocytic leukemia P388 tumor; assay: Anti-tumor activity against lymphocytic leukemia P388 tumor; format: in vivo, CDF1 mice; settings: mean survival days vs PBS control
# Description: Five male CDF1 mice each having a weight of about 22 g were used for each group as test animals, and 1×10^6 cells of lymphocytic leukemia P388 tumor cells were intraperitoneally implanted into the animals. Phosphate solution saline (PBS) containing UCT-1003 (0.2 ml) was once administered intraperitoneally 24 hours after the implantation of tumor cells. The composition of PBS was 0.8 g/dl NaCl, 0.02 g/dl KCl, […] Na2 HPO4 and 0.02 g/dl KH2 PO4 (pH 7.2). For comparison, 0.2 ml of PBS containing mitomycin C was intraperitoneally administered 24 hours after the implantation of tumor cells. Increased life span determined from mean survival days after the implantation is shown in Table 3 as T/C (T: mean survival days of the test groups, C: mean survival days of the control group which received 0.2 ml of PBS intraperitoneally).
# [2] = system: Staphylococcus aureus ATCC 6538P; assay: Antibacterial activity (MIC), agar dilution method, Staphylococcus aureus; format: cell-based; settings: ATCC6538P, pH 7, read-out: minimum inhibitory concentration (MIC)
# Description: (§1) The antibacterial activity was determined by the agar dilution method using a medium (pH 7) which comprises 3 g/l Bacto-Tryptone (Difco Laboratories), 3 g/l meat extract, 1 g/l yeast extract, 1 g/l glucose and 16 g/l agar.
# [3] = system: Enterococcus faecium ATCC 10541; assay: Antibacterial activity (MIC), agar dilution method, Enterococcus faecium; format: cell-based; settings: ATCC10541, pH 7, read-out: minimum inhibitory concentration (MIC)
# Description: as §1
# [4] = system: Bacillus subtilis No. 10707; assay: Antibacterial activity (MIC), agar dilution method, Bacillus subtilis; format: cell-based; settings: pH 7, read-out: minimum inhibitory concentration (MIC)
# Description: as §1
# [5] = system: Klebsiella pneumoniae ATCC 10031; assay: Antibacterial activity (MIC), agar dilution method, Klebsiella pneumoniae; format: cell-based; settings: ATCC10031, pH 7, read-out: minimum inhibitory concentration (MIC)
# Description: as §1
# Escherichia coli ATCC 26 = assay: Antibacterial activity (MIC), agar dilution method, Escherichia coli; format: cell-based; settings: ATCC26, pH 7, read-out: minimum inhibitory concentration (MIC)
# Description: as §1
# [6] = system: Shigella sonnei ATCC 9290; assay: Antibacterial activity (MIC), agar dilution method, Shigella sonnei; format: cell-based; settings: ATCC9290, pH 7, read-out: minimum inhibitory concentration (MIC)
# Description: as §1
# [7] = system: Salmonella typhi ATCC 9992; assay: Antibacterial activity (MIC), agar dilution method, Salmonella typhi; format: cell-based; settings: Salmonella enterica, pH 7, read-out: minimum inhibitory concentration (MIC)
# Description: as §1
# T24 cells = assay: Anti-tumor activity against T24 cells (growth inhibition, Neutral Red); format: cell-based; settings: Homo sapiens, T-24, 72 hours, 37° C.
# Description: T24 cells were suspended in a medium comprising F10 medium (Gibco Co., Ltd.), 0.1 g/ml fetal calf serum, 100 units/ml penicillin and 100 ug/ml streptomycin (hereinafter referred to as medium A) to a concentration of 2×10^4 cells/ml. The cell suspension thus prepared was put into wells of a 96-well microtiter plate in the amount of 0.1 ml per well. After incubation at 37° C. for 20 hours in a CO2 -incubator, 0.05 ml of a test sample appropriately diluted with medium A was added to each well. The cells were further cultured at 37° C. for 72 hours in the CO2 -incubator and the culture supernatant was removed. To the residue was added a medium comprising medium A and 0.02% Neutral Red in the amount of 0.1 ml per well, followed by culturing at 37° C. for one hour in the CO2 -incubator, whereby the cells were stained. After removal of the culture supernatant, the residue was washed once with physiological saline.
# The pigment was extracted with 0.001N hydrochloric acid/30% ethanol and absorbance at 550 nm was measured by using a microplate reader. The concentration of the test compound at which the growth of the cells is inhibited by 50% (IC50) was calculated by comparing the absorbance of untreated cells with those of the cells treated with the test compound at known concentrations.
# HeLaS3 cells = assay: Anti-tumor activity against HeLaS3 cells (growth inhibition, Neutral Red); format: cell-based; settings: Homo sapiens, HeLa S3, 72 hours
# Solubility in solvents = format: physicochemical
Compound,"Increased life span (T/C) ([1]; 4 mg/kg, i.p. 24 hours after i.p. implantation)",MIC [2] [µg/mL],MIC [3] [µg/mL],MIC [4] [µg/mL],MIC [5] [µg/mL],MIC (Escherichia coli ATCC 26) [µg/mL],MIC [6] [µg/mL],MIC [7] [µg/mL],IC50 (T24 cells) [µg/mL],IC50 (HeLaS3 cells) [µg/mL],"Increased life span (T/C) ([1]; 12.5 mg/kg, single i.p. 24 hours after i.p. implantation)","Increased life span (T/C) ([1]; 25 mg/kg, single i.p. 24 hours after i.p. implantation)","Increased life span (T/C) ([1]; 50 mg/kg, single i.p. 24 hours after i.p. implantation)",Solubility in solvents (Solubility in solvents; chloroform and ethyl acetate),"Solubility in solvents (Solubility in solvents; dimethylsulfoxide, pyridine, methanol, ethanol and acetone)",Solubility in solvents (Solubility in solvents; water and n-hexane)
"CO[C@@]12[C@H](COC(N)=O)C3=C(C(=O)C(C)=C(N)C3=O)N1C[C@@H]1N[C@@H]12 [Mitomycin C, mitomycin C, reference compound]",1.57,–,–,–,–,–,–,–,–,–,–,–,–,–,–,–
O=C1c2cc(O)cc(O)c2C(=O)c2c1cc1cc(O)cc(O)c1c2O [UCT-1003],–,2.6,2.6,83,> 100,> 100,> 100,> 100,0.13,0.35,1.21,1.30,1.30,soluble,Readily soluble,sparingly soluble
